Results taken from PMC12751012, “Nanoscale Direct-to-Biology Optimization and Structural Insights into Selective S. aureus TrmD Inhibitors” (Journal of Medicinal Chemistry, 2025).

molecular target: T1, S. aureus TrmD (Staphylococcus aureus, UniProt Q2FZ43); experiment: nanoSAR direct-to-biology FP displacement screening of crude triazoles; format: binding; conditions: crude triazole at 1 μM, assuming full conversion; 500 nM TrmD, 10 nM tracer 4
T1 construct: made in house; host or cells: E. coli BL21
T1 sequence (Q2FZ43 1-245): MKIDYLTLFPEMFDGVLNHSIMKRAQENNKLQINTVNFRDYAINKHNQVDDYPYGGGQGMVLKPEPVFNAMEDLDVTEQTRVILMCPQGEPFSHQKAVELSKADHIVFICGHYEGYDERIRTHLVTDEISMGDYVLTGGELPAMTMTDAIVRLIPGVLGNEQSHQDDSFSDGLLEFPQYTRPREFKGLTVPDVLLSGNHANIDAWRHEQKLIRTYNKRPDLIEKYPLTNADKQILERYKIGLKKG
Procedure, shortened: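 Crude CuAAC triazoles from alkyne 7 and 320 diverse azides were screened by FP displacement of 10 nM tracer 4 from 500 nM S. aureus TrmD. Buffer was 40 mM Tris HCl, 100 mM NaCl, 10 mM MgCl2, 5% glycerol, pH 7.5.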

With `C[C@H](N)Cn1cc(-c2c[nH]c3nc[nH]c(=O)c23)nn1` [Compound 02F09, O=C1NC=NC2=C1C(C3=CN(C[C@@H](N)C)N=N3)=CN2] the “% displaced tracer” value was 26%.

same assay, conditions: crude triazole at 1 μM, assuming full conversion; 500 nM TrmD, 10 nM tracer 4; read-out: % displaced tracer

Point of comparison: `NCCOCCn1cc(-c2c[nH]c3nc[nH]c(=O)c23)nn1` [Compound 02F12, O=C1NC=NC=2NC=C(C=3N=NN(C3)CCOCC[NH3+])C12], inhibition at 1 µM 39%. Against it:
- O=c1[nH]cnc2[nH]cc(-c3cn(Cc4ccc(-n5cccn5)cc4)nn3)c12 [Compound 02E09, O=C1NC=NC=2NC=C(C=3N=NN(C3)Cc4ccc(N5N=CC=C5)cc4)C12] — higher, 62%
- CC(C)(C)OC(=O)NC[C@@]1(Cn2cc(-c3c[nH]c4nc[nH]c(=O)c34)nn2)CC12CCC2 [Compound 02E10, O=C(OC(C)(C)C)NC[C@@]1(C2(C1)CCC2)CN3N=NC(C=4C=5C(=O)NC=NC5NC4)=C3] — lower, 23%
- C[C@@H](C(=O)N1CCCC1)n1cc(-c2c[nH]c3nc[nH]c(=O)c23)nn1 [Compound 02E11, O=C1NC=NC=2NC=C(C=3N=NN(C3)[C@H](C(=O)N4CCCC4)C)C12] — lower, 20%
- O=C(c1ncon1)n1cc(-c2c[nH]c3nc[nH]c(=O)c23)nn1 [Compound 02E12, O=C(N1N=NC(C=2C=3C(=O)NC=NC3NC2)=C1)C4=NOC=N4] — lower, 1.83%
- CC(C)(C)O[C@H]1C[C@@H](n2cc(-c3c[nH]c4nc[nH]c(=O)c34)nn2)C1 [Compound 02F01, O=C1NC=NC=2NC=C(C=3N=NN(C3)[C@@H]4C[C@H](OC(C)(C)C)C4)C12] — lower, 21%
- O=C(Cn1cc(-c2c[nH]c3nc[nH]c(=O)c23)nn1)N1CCCCC1 [Compound 02F02, O=C1NC=NC=2NC=C(C=3N=NN(C3)CC(=O)N4CCCCC4)C12] — lower, 32%
- O=c1[nH]cnc2[nH]cc(-c3cn(-c4ccccc4Cl)nn3)c12 [Compound 02F03, Clc1c(N2N=NC(C=3C=4C(=O)NC=NC4NC3)=C2)cccc1] — lower, 22%
- O=C1NC[C@@H](Cn2cc(-c3c[nH]c4nc[nH]c(=O)c34)nn2)O1 [Compound 02F04, O=C1O[C@H](CN2N=NC(C=3C=4C(=O)NC=NC4NC3)=C2)CN1] — higher, 45%
- COC(=O)c1cncc(-n2cc(-c3c[nH]c4nc[nH]c(=O)c34)nn2)c1 [Compound 02F05, O=C(OC)c1cncc(N2N=NC(C=3C=4C(=O)NC=NC4NC3)=C2)c1] — lower, 11%
- CC(C)Cn1cc(-c2c[nH]c3nc[nH]c(=O)c23)nn1 [Compound 02F06, O=C1NC=NC=2NC=C(C=3N=NN(C3)CC(C)C)C12] — lower, 1.22%
- NC(=O)c1csc(Cn2cc(-c3c[nH]c4nc[nH]c(=O)c34)nn2)n1 [Compound 02F07, S1C(=NC(C(=O)N)=C1)CN2N=NC(C=3C=4C(=O)NC=NC4NC3)=C2] — higher, 91%
- O=c1[nH]cnc2[nH]cc(-c3cn(Cc4ncoc4C4CCC4)nn3)c12 [Compound 02F08, O=C1NC=NC=2NC=C(C=3N=NN(C3)CC=4N=COC4C5CCC5)C12] — higher, 61%
- O=c1[nH]cnc2[nH]cc(-c3cn(-c4cc(F)ccc4F)nn3)c12 [Compound 02F10, Fc1c(N2N=NC(C=3C=4C(=O)NC=NC4NC3)=C2)cc(F)cc1] — lower, 15%
- O=C(NCCn1cc(-c2c[nH]c3nc[nH]c(=O)c23)nn1)C(F)(F)F [Compound 02F11, FC(F)(F)C(=O)NCCN1N=NC(C=2C=3C(=O)NC=NC3NC2)=C1] — higher, 41%
- O=c1[nH]cnc2[nH]cc(-c3cn(CC4CCC=CCC4)nn3)c12 [Compound 02G01, O=C1NC=NC=2NC=C(C=3N=NN(C3)CC4CCC=CCC4)C12] — higher, 71%
- O=c1[nH]cnc2[nH]cc(-c3cn(-c4cccc(Cl)c4-c4nnn[nH]4)nn3)c12 [Compound 02G02, Clc1c(c(N2N=NC(C=3C=4C(=O)NC=NC4NC3)=C2)ccc1)C=5[N-]N=NN5] — lower, 15%
- O=c1[nH]cnc2[nH]cc(-c3cn(-c4ccc(CCO)cc4)nn3)c12 [Compound 02G03, O=C1NC=NC=2NC=C(C=3N=NN(c4ccc(cc4)CCO)C3)C12] — lower, 15%
- O=c1[nH]cnc2[nH]cc(-c3cn(CC4CC(F)(F)C4)nn3)c12 [Compound 02G04, F[C@@]1(F)C[C@@H](CN2N=NC(C=3C=4C(=O)NC=NC4NC3)=C2)C1] — lower, 15%
